Laboratory results taken from patent EP4741392A1, “1H-PYRAZOLO[4,3-C]PYRIDINE COMPOUND, AND COMPOSITION THEREOF AND USE THEREOF” (Shenzhen TargetRx Co., Ltd., priority 2023, dated 2025).

What was measured:
Type in all cases: cell-based
[1] = test system: NIH/3T3 BTK C481S cells; experiment: Phosphor-BTK(Y223) assay, adherent cells; conditions: Mus musculus, NIH3T3, phosphorylated BTK Y223, NIH/3T3 BTK C481S cells; read-out: NIH/3T3 BTK-C481S pBTK
In short: (§1)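 NIH/3T3 cells expressing WT or C481S BTK were pretreated with compound for 0.5 h at 37 °C, then stimulated with 1 mM Na3VO4 (final) for 2 h. Lysates were assayed by HTRF for p-BTK Y223 using the 665/620 nm ratio. IC50 was obtained by nonlinear fit of % inhibition versus 0.5% DMSO control.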

[2] = test system: NIH/3T3 BTK WT cells; experiment: Phosphor-BTK(Y223) assay, adherent cells; conditions: Mus musculus, NIH3T3, phosphorylated BTK Y223, NIH/3T3 BTK WT cells; read-out: NIH/3T3 BTK-WT pBTK
In short: as §1

[3] = test system: Ramos cells with BTK WT; experiment: Phosphor-BTK(Y223) assay, suspended cells; conditions: Homo sapiens, Ramos, phosphorylated BTK Y223, Ramos cells with BTK WT
In short: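 Ramos BTK WT cells (2.5 k/well) were treated with compound dilutions for 2 h at 37 °C, then 5 mM Na3VO4 for 3 h. Lysates were read by HTRF p-BTK(Y223) cryptate/d2 antibodies overnight at RT (665/620 ratio). IC50 came from a four-parameter fit of % inhibition versus blank and positive-control wells.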

IC50 [3] [nM]	Structure (SMILES)	IC50 [1] [nM]	IC50 [2] [nM]
5 to 10	COc1ccc(F)cc1C(=O)NCc1ccc(-c2ncc(-c3ccn(CC(=O)N(C)C)n3)c3[nH]nc(N)c23)cc1 [Example 25, N-(4-(3-amino-7-(1-(2-(dimethylamino)-2-oxoethyl)-1H-pyrazol-3-yl)-1H-pyrazolo[4,3-c]pyridin-4-yl)benzyl)-5-fluoro-2-methoxybenzamide]	10 to 50	10 to 50
≤ 5	CNC(=O)Cn1ccc(-c2cnc(-c3ccc(CNC(=O)c4cc(F)ccc4OC)cc3)c3c(N)n[nH]c23)n1 [Example 26, N-(4-(3-amino-7-(1-(2-(methylamino)-2-oxoethyl)-1H-pyrazol-3-yl)-1H-pyrazolo[4,3-c]pyridin-4-yl)benzyl)-5-fluoro-2-methoxybenzamide]	10 to 50	10 to 50
10 to 50	COc1ccc(F)cc1C(=O)NCc1ccc(-c2ncc(-c3ccn(CC(F)(F)F)n3)c3[nH]nc(N)c23)cc1 [Example 28, N-(4-(3-amino-7-(1-(2,2,2-trifluoroethyl)-1H-pyrazol-3-yl)-1H-pyrazolo[4,3-c]pyridin-4-yl)benzyl)-5-fluoro-2-methoxybenzamide]	10 to 50	≤ 5
10 to 50	COc1ccc(F)cc1C(=O)NCc1ccc(-c2ncc(-c3cn(C)cn3)c3[nH]nc(N)c23)cc1 [Example 30, N-(4-(3-amino-7-(1-methyl-1H-imidazol-4-yl)-1H-pyrazolo[4,3-c]pyridin-4-yl)benzyl)-5-fluoro-2-methoxybenzamide]	5 to 10	≤ 5
10 to 50	COc1ccc(F)cc1C(=O)NCc1ccc(-c2ncc(-c3cc[nH]n3)c3[nH]nc(N)c23)cc1 [Example 31, N-(4-(3-amino-7-(1H-pyrazol-3-yl)-1H-pyrazolo[4,3-c]pyridin-4-yl)benzyl)-5-fluoro-2-methoxybenzamide]	10 to 50	5 to 10
≤ 5	COc1ccc(F)cc1C(=O)NCc1ccc(-c2ncc(-c3ccc(S(C)(=O)=O)cn3)c3[nH]nc(N)c23)cc1 [Example 35, N-(4-(3-amino-7-(5-(methylsulfonyl)pyridin-2-yl)-1H-pyrazolo[4,3-c]pyridin-4-yl)benzyl)-5-fluoro-2-methoxybenzamide]	≤ 5	≤ 5
10 to 50	COc1ccc(F)cc1C(=O)NCc1ccc(-c2ncc(-c3ncc(F)cn3)c3[nH]nc(N)c23)cc1 [Example 36, N-(4-(3-amino-7-(5-fluoropyrimidin-2-yl)-1H-pyrazolo[4,3-c]pyridin-4-yl)benzyl)-5-fluoro-2-methoxybenzamide]	5 to 10	5 to 10
≤ 5	COc1ccc(F)cc1C(=O)NCc1ccc(-c2ncc(-c3ccc(C)cn3)c3[nH]nc(N)c23)cc1 [Example 37, N-(4-(3-amino-7-(5-methylpyridin-2-yl)-1H-pyrazolo[4,3-c]pyridin-4-yl)benzyl)-5-fluoro-2-methoxybenzamide]	≤ 5	≤ 5
≤ 5	COc1ccc(F)cc1C(=O)NCc1ccc(-c2ncc(-c3ccc(Cl)cn3)c3[nH]nc(N)c23)cc1 [Example 38, N-(4-(3-amino-7-(5-chloropyridin-2-yl)-1H-pyrazolo[4,3-c]pyridin-4-yl)benzyl)-5-fluoro-2-methoxybenzamide]	≤ 5	≤ 5
≤ 5	COc1ccc(F)cc1C(=O)NCc1ccc(-c2ncc(-c3ncc(C)cn3)c3[nH]nc(N)c23)cc1 [Example 39, N-(4-(3-amino-7-(5-methylpyrimidin-2-yl)-1H-pyrazolo[4,3-c]pyridin-4-yl)benzyl)-5-fluoro-2-methoxybenzamide]	≤ 5	≤ 5
≤ 5	COc1ccc(F)cc1C(=O)NCc1ccc(-c2ncc(-c3ccc(OC(F)(F)F)cn3)c3[nH]nc(N)c23)cc1 [Example 41, N-(4-(3-amino-7-(5-(trifluoromethoxy)pyridin-2-yl)-1H-pyrazolo[4,3-c]pyridin-4-yl)benzyl)-5-fluoro-2-methoxybenzamide]	5 to 10	≤ 5
